Assays:
[1] = TBARS formation in cooked pork model system; details: 80 μmol/kg meat, stored at 4° C.
Procedure: Fresh ground pork (40 g) was mixed with deionized water (10 g) in a Mason jar. Samples and reference antioxidant compound (BHA) dissolved in ethanol were added to meat at a level of 80 μmol/kg. A control without any antioxidant was also prepared. The content was thoroughly mixed and cooked at 80° C. in a thermostated water bath for 40 min with intermittent stirring. The cooked meat was cooled to room temperature and homogenized with a Polytron PT 3000 (Brinkmann Instruments, Rexdale, ON) homogenizer. The homogenate was then transferred into plastic bags and stored at 4° C. for 14 days. […].
TBARS values were determined as described by Shahidi and Hong (Shahidi, F. and Hong, C. Evaluation of malonaldehyde as a marker of oxidative rancidity in meat products. J. Food Biochem. 15, 97-105, 1991).
A series of TMP (1,1,3,3-tetramethoxypropane) standard solutions at difference concentrations was mixed with thiobarbituric acid (TBA) in screw-capped tubes and heated in a boiling water bath for 45 min. After cooling on ice, the absorbance was recorded at 532 nm and a standard curve was constructed (absorbance versus concentration). For TBARS in the cooked meat model system, 2 g of meat were mixed with 5 ml of trichloroacetic acid (TCA, 10% w/v) in a centrifuge tube, followed by addition of 5 ml of TBA reagent. The mixture was centrifuged at 3000×g for 10 min and the supernatant was filtered. The filtrate was heated in a boiling water bath for 45 min and absorbance was measured at 532 nm after cooling to room temperature. TBARS values in meat samples were obtained using the standard curve as μmol malonaldehyde equivalents/kg of meat. Antioxidant activity was calculated as percentage inhibition of TBARS formation by test compounds.

HCV NS3/4A protease = HCV NS3/4A protease (Hepatitis C virus genotype 1a, UniProt P27958); experiment: Inhibition against HCV protease; type: biochemical
Procedure: An aliquot (2 μl) of test compounds dissolved in DMSO was added to each well of a 384-well black Assay plate, followed by addition of 8 μl of HCV NS3/4A protease solution (0.5 μg/ml). The reaction was initiated by adding 10 μl of freshly diluted substrate (100× dilution of a DMSO stocking solution). The mixture was incubated at room temperature for 30 min, and the fluorescence intensity was measured at 485 nm for excitation and 535 nm for emission by a TECAN GENios plate reader. […] All fluorescence values were corrected with a substrate blank. Samples were assayed at different concentrations to plot a concentration VS. inhibition percentage curve, and IC50 values were obtained from the curve for each sample. A known HCV protease inhibitor, embelin, was used as a reference. Discussion

[2] = tested on: colon ACF and colon tumors in AOM treated mice; experiment: AOM-treated mice, colon aberrant crypt foci and tumors; type: in vivo, ICR mice
Procedure: (§1) Male ICR mice at 5 weeks of age were purchased from the BioLASCO Experimental Animal Center (Taiwan Co., Ltd). After 1 week of acclimation, animals were randomly distributed into control and experimental groups. All animals were housed in a controlled atmosphere (25±1° C. at 50% relative humidity) and with a 12-hour light/12-hour dark cycle. Animals had free access to food and water at all times. Food cups were replenished with fresh diet every day. The experimental protocol is illustrated in FIG. 6. Mice were divided into 6 groups. One group (negative control) was fed standard diet; one group (positive control) was fed standard diet but injected with azozymethane (AOM) twice a week for 2 weeks; the remaining 4 groups had AOM injection and dietary supplementation of different levels of EGCG esters (1a and EGCG-DHA ester mixture containing predominantly 1c and its homologues). 9(b): Identification of ACF The formalin-fixed colonic tissues were cut into proximal (1-2 cm from the cecum), middle (3-4 cm) and distal (1-2 cm from anus) segments and stained in 0.2% methylene blue solution for 10 min. Methylene blue-stained ACF in each focus were counted under a microscope (×40). The ACF location (distance from anus) and size (number of aberrant crypts) were recorded. […] The densities of the bands were quantitated with a computer densitometer (AlphaImager™ 2200 System). […]

iNOS = iNOS expression in colon of AOM-treated mice (western blot); type: in vivo, ICR mice; details: western blot of colon mucosa
Procedure: as §1

COX-2 = COX-2 expression in colon of AOM-treated mice (western blot); type: in vivo, ICR mice; details: western blot of colon mucosa
Procedure: as §1

Sequence of HCV NS3/4A protease (P27958 1027-1657): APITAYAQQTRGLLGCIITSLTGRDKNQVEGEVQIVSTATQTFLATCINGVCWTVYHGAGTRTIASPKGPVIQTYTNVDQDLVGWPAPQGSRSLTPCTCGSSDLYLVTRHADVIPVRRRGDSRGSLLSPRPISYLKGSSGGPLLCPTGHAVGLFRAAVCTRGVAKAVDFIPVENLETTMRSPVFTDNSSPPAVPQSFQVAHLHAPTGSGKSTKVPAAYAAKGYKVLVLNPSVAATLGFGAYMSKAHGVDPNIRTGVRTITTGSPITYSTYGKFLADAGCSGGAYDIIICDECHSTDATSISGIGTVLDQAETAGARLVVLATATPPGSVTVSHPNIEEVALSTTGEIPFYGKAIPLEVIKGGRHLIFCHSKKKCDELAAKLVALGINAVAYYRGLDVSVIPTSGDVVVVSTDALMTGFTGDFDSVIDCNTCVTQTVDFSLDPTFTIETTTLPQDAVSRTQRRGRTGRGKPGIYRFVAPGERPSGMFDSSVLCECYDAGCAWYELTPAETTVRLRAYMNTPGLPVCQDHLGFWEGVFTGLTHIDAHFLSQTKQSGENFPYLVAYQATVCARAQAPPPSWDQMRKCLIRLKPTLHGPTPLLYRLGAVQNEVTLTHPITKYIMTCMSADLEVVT
Sequence of HCV NS3/4A protease (P27958 1658-1711): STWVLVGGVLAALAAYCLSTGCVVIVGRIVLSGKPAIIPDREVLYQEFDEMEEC

Row | Compound | Inhibition of TBARS formation in cooked pork [1] | IC50 (HCV NS3/4A protease; HCV NS3/4A protease 0.5 μg/ml, 30 min, room temperature) [nM] | HCV protease inhibitory activity relative to embelin (HCV NS3/4A protease; fold stronger than embelin) [fold] | Colon tumors ([2]; AOM treated mice, FIG. 7) | Tumorogenesis in terms of number and size of ACF ([2]; AOM-injected male ICR mice, dietary supplementation) | iNOS expression in mice colon (iNOS) | COX-2 expression in mice colon (COX-2)
1 | COc1ccc(O)c(C(C)(C)C)c1 [BHA, reference compound] | 83.3 ± 2.34^ab % |  |  |  |  |  | 
2 | CCCC(=O)Oc1cc(OC(=O)CCC)c2c(c1)OC(c1cc(OC(=O)CCC)c(OC(=O)CCC)c(OC(=O)CCC)c1)C(OC(=O)c1cc(OC(=O)CCC)c(OC(=O)CCC)c(OC(=O)CCC)c1)C2 (stereo not shown) [Compound 1g, EGCG-octabutyrate] |  | 980 | 10 | inhibited to a lesser level | significantly suppressed tumorogenesis | dose-dependent inhibitory effect | dose-dependent inhibitory effect
